Reference: publication PMC12668304, “A Triple Threat Against Ovarian Cancer: Os(II)‐Pt(IV)‐Ceritinib Conjugates for Photodynamic Therapy, Chemotherapy, and Immunogenic Cell Death Induction” (Angewandte Chemie (International Ed. in English), 2025)

System: MCA205 cells co-incubated with RAW 264.7 macrophages
Experiment: Phagocytosis of treated cancer cells by macrophages (flow cytometry, confocal microscopy)
Format: cell-based, mouse
Settings: IC50,48 h concentration, 3 h co-incubation
Description: All compounds were incubated for 4 h with the cells, which were either irradiated at 740 nm (1 h) or kept in the dark. 16 h post‐treatment, cancer cells were stained with CellMask Green, while RAW 264.7 macrophages were stained with CellMask DeepRed. Co‐culture was performed at a 1 : 2 (macrophage : tumour cells) ratio for 3 h. Thereafter, the phagocytosis was evaluated by flow cytometry and confocal microscopy.
To quantify this phagocytic response, a flow cytometry assay was performed, see Figure 12. MCA205 cells were incubated with Os‐Pt‐Cer for 4 h, after which half of the samples were either kept in the dark (−L) or irradiated (+L) for 1 h (740 nm). After an additional 16 h, the cells were co‐incubated with RAW 264.7 macrophages for 3 h. […] Flow cytometry analysis was used to quantify phagocytosis, identifying double‐positive (green–red) events as phagocytic macrophages. […]
analyzed using an ATP assay kit according to the manufacturer’s instructions. Luminescence was measured on a SPARK multimode reader (Tecan). […]
MCA205 and A2780 cells were seeded on µ-slide 8 well (Ibidi) (100 µl/well) and left for 24 h to attach to the bottom at a density of 2 x 10^4 cells/well and incubated overnight. […] 30 minutes before starting confocal fluorescence microscopy analysis, Hoechst was added at a final concentration of 1 µg/mL. […] Images were analysed with LAS X Film FCS software. […]

| SMILES | phagocytosis, double‐positive (green–red) events (upper right quadrant) (+L (740 nm, 1 h)) [%] | phagocytosis, double‐positive (green–red) events (upper right quadrant) (light condition not given) [%] |
| --- | --- | --- |
| C=Cc1c(C)c2cc3nc(c(CC(=O)O)c4[nH]c(cc5nc(cc1[nH]2)C(C)=C5CC)c(C)c4C(=O)O)[C@@H](CCC(=O)O)[C@@H]3C [Ce6, Chlorin e6] | 7.4 |  |
| O=C1[O][Pt]2([NH][C@@H]3CCCC[C@H]3[NH]2)[O]C1=O [Oxaliplatin] |  | 6.0 |
